The test system of experiment [1] is H929 human cancer cell lines. The experiment is described as follows: Cellular viability / proliferation (Cell TiterGlo, 72 h). Format: cell-based. The following applies: Homo sapiens, NCI-H929, 72 h, read-out: GI50 on cellular proliferation of H929 human cancer cell lines, H929 cells, 72 h, Cell TiterGlo, 10% FBS. Put shortly: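 Top dose 50 μM, serially diluted 2-fold, applied one day after seeding (1,000 cells/well, 10% FBS), DMSO below 1%.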
In general terms: In ATP-based viability assays light output follows the ATP content of the culture.

Experiment [2] has as its target Mcl-1 (Homo sapiens (Human), UniProt Q07820). The experiment in a line: TR-FRET binding assay, FITC-Bak peptide and MBP-tagged Mcl-1. The following applies: read-out: Ki for Inhibition of Mcl-1 by TR-FRET assay. The protocol: Compounds are diluted in DMSO in a 16-point, semilog serial dilution scheme. […] The plate was mixed and incubated for 3 hours at room temperature. […] TR-FRET signal is plotted and IC50 and Ki values are calculated in the same manner as the fluorescence polarization anisotropy based competition assays.

Some results are limits rather than exact numbers.

Mcl-1, sequence (Q07820 172-327): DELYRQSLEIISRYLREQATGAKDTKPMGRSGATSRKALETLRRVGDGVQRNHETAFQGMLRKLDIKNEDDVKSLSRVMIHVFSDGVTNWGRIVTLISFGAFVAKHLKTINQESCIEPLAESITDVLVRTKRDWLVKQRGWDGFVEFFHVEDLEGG

Regarding `Cc1cc(OCCCc2c3n(c4c(-c5c(C)nn(C)c5C)c(Cl)ccc24)[C@H](C)CN(c2cn(C)c4ncc(C(=O)O)cc24)C3=O)cc(C)c1Cl` [Example 575, (R)-3-(7-chloro-10-(3-(4-chloro-3,5-dimethylphenoxy)propyl)-4-methyl-1-oxo-6-(1,3,5-trimethyl-1H-pyrazol-4-yl)-3,4-dihydropyrazino[1,2-a]indol-2(1H)-yl)-1-methyl-1H-pyrrolo[2,3-b]pyridine-5-carboxylic acid], in experiment [1], the GI50 turned out to be 740 nM. Further, the Ki in experiment [2] is less than 0.2 nM.
For `Cc1cc(N2C[C@@H](C)n3c(c(CCCOc4cc(C)c(Cl)c(C)c4)c4ccc(Cl)c(-c5c(C)ncnc5C)c43)C2=O)c2c(c1)cc(C(=O)O)n2Cc1cccc(C)n1` [Example 576, (R)-7-(7-chloro-10-(3-(4-chloro-3,5-dimethylphenoxy)propyl)-6-(4,6-dimethylpyrimidin-5-yl)-4-methyl-1-oxo-3,4-dihydropyrazino[1,2-a]indol-2(1H)-yl)-5-methyl-1-((6-methylpyridin-2-yl)methyl)-1H-indole-2-carboxylic acid], in experiment [1], the GI50 amounted to 350 nM. The Ki in experiment [2] is less than 0.2 nM.
In the same order, the values of `Cc1ccnc(Cn2c(C(=O)O)cc3cc(C)cc(N4C[C@@H](C)n5c(c(CCCOc6cc(C)c(Cl)c(C)c6)c6ccc(Cl)c(-c7c(C)ncnc7C)c65)C4=O)c32)c1` [Example 577, (R)-7-(7-chloro-10-(3-(4-chloro-3,5-dimethylphenoxy)propyl)-6-(4,6-dimethylpyrimidin-5-yl)-4-methyl-1-oxo-3,4-dihydropyrazino[1,2-a]indol-2(1H)-yl)-5-methyl-1-((4-methylpyridin-2-yl)methyl)-1H-indole-2-carboxylic acid] are 230 nM and less than 0.2 nM.
In the same order, the values of `Cc1cc(N2C[C@@H](C)n3c(c(CCCOc4cc(C)c(Cl)c(C)c4)c4ccc(Cl)c(-c5c(C)nn(C)c5C)c43)C2=O)c2c(c1)cc(C(=O)O)n2CCOC(C)C` [Example 578, (R)-7-(7-chloro-10-(3-(4-chloro-3,5-dimethylphenoxy)propyl)-4-methyl-1-oxo-6-(1,3,5-trimethyl-1H-pyrazol-4-yl)-3,4-dihydropyrazino[1,2-a]indol-2(1H)-yl)-1-(2-isopropoxyethyl)-5-methyl-1H-indole-2-carboxylic acid] are 390 nM and less than 0.2 nM.
In the same order, the values of `CCOCCn1c(C(=O)O)cc2cc(C)cc(N3C[C@@H](C)n4c(c(CCCOc5cc(C)c(Cl)c(C)c5)c5ccc(Cl)c(-c6c(C)nn(C)c6C)c54)C3=O)c21` [Example 579, (R)-7-(7-chloro-10-(3-(4-chloro-3,5-dimethylphenoxy)propyl)-4-methyl-1-oxo-6-(1,3,5-trimethyl-1H-pyrazol-4-yl)-3,4-dihydropyrazino[1,2-a]indol-2(1H)-yl)-1-(2-ethoxyethyl)-5-methyl-1H-indole-2-carboxylic acid] are 240 nM and less than 0.2 nM.
For the molecule `Cc1cc(OCCCc2c3n(c4c(-c5c(C)nc(CN6CCN(C)CC6)nc5C)c(Cl)ccc24)[C@H](C)CN(c2cn(CCN(C)C)c4ccc(C(=O)O)cc24)C3=O)cc(C)c1Cl` [Example 580, (R)-3-(7-chloro-10-(3-(4-chloro-3,5-dimethylphenoxy)propyl)-6-(4,6-dimethyl-2-((4-methylpiperazin-1-yl)methyl)pyrimidin-5-yl)-4-methyl-1-oxo-3,4-dihydropyrazino[1,2-a]indol-2(1H)-yl)-1-(2-(dimethylamino)ethyl)-1H-indole-5-carboxylic acid], the GI50 in experiment [1] is 960 nM. The inhibition constant Ki in experiment [2] was less than 0.2 nM.
In the same order, the values of `COCCn1cc(N2C[C@@H](C)n3c(c(CCCOc4cc(C)c(Cl)c(C)c4)c4ccc(Cl)c(-c5c(C)nn(C)c5C)c43)C2=O)c2cc(-c3ncn(CC4COC4)n3)ccc21` [Example 581, (R)-7-Chloro-10-(3-(4-chloro-3,5-dimethylphenoxy)propyl)-2-(1-(2-methoxyethyl)-5-(1-(oxetan-3-ylmethyl)-1H-1,2,4-triazol-3-yl)-1H-indol-3-yl)-4-methyl-6-(1,3,5-trimethyl-1H-pyrazol-4-yl)-3,4-dihydropyrazino[1,2-a]indol-1(2H)-one] are 250 nM and 3.7 nM.
In the same order, the values of `COc1ccc(N2C[C@@H](C)n3c(c(CCCOc4cc(C)c(Cl)c(C)c4)c4ccc(Cl)c(-c5c(C)nn(C)c5C)c43)C2=O)c2c1cc(C(=O)O)n2Cc1cc(C)ccn1` [Example 582, (R)-7-(7-chloro-10-(3-(4-chloro-3,5-dimethylphenoxy)propyl)-4-methyl-1-oxo-6-(1,3,5-trimethyl-1H-pyrazol-4-yl)-3,4-dihydropyrazino[1,2-a]indol-2(1H)-yl)-4-methoxy-1-((4-methylpyridin-2-yl)methyl)-1H-indole-2-carboxylic acid] are 220 nM and 0.28 nM.
In the same order, the values of `Cc1ccnc(Cn2c(C(=O)O)cc3cc(OCCN(C)C)cc(N4C[C@@H](C)n5c(c(CCCOc6cc(C)c(Cl)c(C)c6)c6ccc(Cl)c(-c7c(C)ncnc7C)c65)C4=O)c32)c1` [Example 584, (R)-7-(7-chloro-10-(3-(4-chloro-3,5-dimethylphenoxy)propyl)-6-(4,6-dimethylpyrimidin-5-yl)-4-methyl-1-oxo-3,4-dihydropyrazino[1,2-a]indol-2(1H)-yl)-5-(2-(dimethylamino)ethoxy)-1-((4-methylpyridin-2-yl)methyl)-1H-indole-2-carboxylic acid] are 1000 nM and less than 0.2 nM.
For the molecule `Cc1cc(OCCCc2c3n(c4c(-c5c(C)nn(C)c5C)c(Cl)ccc24)[C@H](C)CN(c2cn(C)c4ncc(C(=O)O)nc24)C3=O)cc(C)c1Cl` [Example 585, (R)-7-(7-chloro-10-(3-(4-chloro-3,5-dimethylphenoxy)propyl)-4-methyl-1-oxo-6-(1,3,5-trimethyl-1H-pyrazol-4-yl)-3,4-dihydropyrazino[1,2-a]indol-2(1H)-yl)-5-methyl-5H-pyrrolo[2,3-b]pyrazine-2-carboxylic acid], the GI50 in experiment [1] stood at 1500 nM. The Ki in experiment [2] is less than 0.2 nM.
In the same order, the values of `Cc1cc(OCCCc2c3n(c4c(-c5c(C)nn(C)c5C)c(Cl)ccc24)[C@H](C)CN(c2cn(CCN4CCCC4)c4ccc(-c5ncn(C)n5)cc24)C3=O)cc(C)c1Cl` [Example 586, (R)-7-Chloro-10-(3-(4-chloro-3,5-dimethylphenoxy)propyl)-4-methyl-2-(5-(1-methyl-1H-1,2,4-triazol-3-yl)-1-(2-(pyrrolidin-1-yl)ethyl)-1H-indol-3-yl)-6-(1,3,5-trimethyl-1H-pyrazol-4-yl)-3,4-dihydropyrazino[1,2-a]indol-1(2H)-one] are 400 nM and 2.6 nM.
In the same order, the values of `COCCn1c(C(=O)O)cc2c(OC)ccc(N3C[C@@H](C)n4c(c(CCCOc5cc(C)c(Cl)c(C)c5)c5ccc(Cl)c(-c6c(C)nn(C)c6C)c54)C3=O)c21` [Example 587, (R)-7-(7-chloro-10-(3-(4-chloro-3,5-dimethylphenoxy)propyl)-4-methyl-1-oxo-6-(1,3,5-trimethyl-1H-pyrazol-4-yl)-3,4-dihydropyrazino[1,2-a]indol-2(1H)-yl)-4-methoxy-1-(2-methoxyethyl)-1H-indole-2-carboxylic acid] are less than 200 nM and less than 0.2 nM.
Consider `Cc1cc(OCCCc2c3n(c4c(-c5c(C)nn(C)c5C)c(Cl)ccc24)[C@H](C)CN(c2cc(OCc4ccccc4)cc4cc(C(=O)O)n(Cc5ccccn5)c24)C3=O)cc(C)c1Cl` [Example 588, (R)-5-(benzyloxy)-7-(7-chloro-10-(3-(4-chloro-3,5-dimethylphenoxy)propyl)-4-methyl-1-oxo-6-(1,3,5-trimethyl-1H-pyrazol-4-yl)-3,4-dihydropyrazino[1,2-a]indol-2(1H)-yl)-1-(pyridin-2-ylmethyl)-1H-indole-2-carboxylic acid], for which the GI50 in experiment [1] stood at 1400 nM. Besides, the inhibition constant (Ki) in experiment [2] came to 1.4 nM.
As for `COCCn1cc(N2C[C@@H](C)n3c(c(CCCOc4cc(C)c(Cl)c(C)c4)c4ccc(Cl)c(-c5c(C)nn(C)c5C)c43)C2=O)c2cc(-c3ncn(CC4CC4)n3)ccc21` [Example 589, (R)-7-Chloro-10-(3-(4-chloro-3,5-dimethylphenoxy)propyl)-2-(5-(1-(cyclopropylmethyl)-1H-1,2,4-triazol-3-yl)-1-(2-methoxyethyl)-1H-indol-3-yl)-4-methyl-6-(1,3,5-trimethyl-1H-pyrazol-4-yl)-3,4-dihydropyrazino[1,2-a]indol-1(2H)-one], the GI50 in experiment [1] turned out to be 1100 nM. Further, the Ki in experiment [2] stood at 1.7 nM.
In the same order, the values of `Cc1cc(OCCCc2c3n(c4c(-c5c(C)nn(C)c5C)c(Cl)ccc24)[C@H](C)CN(c2cc(OCCN(C)C)cc4cc(C(=O)O)n(Cc5ccccn5)c24)C3=O)cc(C)c1Cl` [Example 590, (R)-7-(7-chloro-10-(3-(4-chloro-3,5-dimethylphenoxy)propyl)-4-methyl-1-oxo-6-(1,3,5-trimethyl-1H-pyrazol-4-yl)-3,4-dihydropyrazino[1,2-a]indol-2(1H)-yl)-5-(2-(dimethylamino)ethoxy)-1-(pyridin-2-ylmethyl)-1H-indole-2-carboxylic acid] are 670 nM and less than 0.2 nM.
`Cc1cc(OCCCc2c3n(c4c(-c5c(C)nn(C)c5C)c(Cl)ccc24)[C@H](C)CN(c2cc(C(=O)N4CCOCC4)cc4cc(C(=O)O)n(C)c24)C3=O)cc(C)c1Cl` [Example 591, (R)-7-(7-chloro-10-(3-(4-chloro-3,5-dimethylphenoxy)propyl)-4-methyl-1-oxo-6-(1,3,5-trimethyl-1H-pyrazol-4-yl)-3,4-dihydropyrazino[1,2-a]indol-2(1H)-yl)-1-methyl-5-(morpholine-4-carbonyl)-1H-indole-2-carboxylic acid]: the GI50 in experiment [1] was 2800 nM. The Ki in experiment [2] was less than 0.2 nM.

As usually defined, the Ki is a measure of affinity in units of concentration, obtained from inhibition or displacement.

For the origin of these results see patent publication US11596639B2, “Substituted indole Mcl-1 inhibitors” (Vanderbilt University, priority 2016, dated 2023).
